How the values were obtained:
Conditions in all cases: compound 10.0 µM
MERTK (human) = MERTK (human) (UniProt Q12866)
NTRK2 (human) = NTRK2 (human) (UniProt Q16620)
TYRO3 (human) = TYRO3 (human) (UniProt Q06418)
PKN1 (human) = PKN1 (human) (UniProt Q16512)
MAPK3 (human) = MAPK3 (human) (UniProt P27361)
PTK2B (human) = PTK2B (human) (UniProt Q14289)
EPHB1 (human) = EPHB1 (human) (UniProt P54762)
MARK2 (human) = MARK2 (human) (UniProt Q7KZI7)
CSK (human) = CSK (human) (UniProt P41240)
BRSK2 (human) = BRSK2 (human) (UniProt Q8IWQ3)
CDK4 CCND1 (human) = CDK4 CCND1 (human) (UniProt P11802+P24385)
CDK4 CCND1 (human), sequence (P11802 whole entry, looked up): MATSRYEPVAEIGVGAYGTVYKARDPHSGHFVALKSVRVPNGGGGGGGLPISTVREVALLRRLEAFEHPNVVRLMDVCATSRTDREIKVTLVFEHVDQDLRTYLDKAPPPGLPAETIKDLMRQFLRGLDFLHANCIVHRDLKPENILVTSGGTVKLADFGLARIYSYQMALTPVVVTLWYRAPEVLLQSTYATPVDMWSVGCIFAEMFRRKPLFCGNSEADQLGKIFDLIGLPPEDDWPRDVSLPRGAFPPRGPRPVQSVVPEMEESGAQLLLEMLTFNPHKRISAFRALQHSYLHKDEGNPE
CDK4 CCND1 (human), sequence (P24385 whole entry, looked up): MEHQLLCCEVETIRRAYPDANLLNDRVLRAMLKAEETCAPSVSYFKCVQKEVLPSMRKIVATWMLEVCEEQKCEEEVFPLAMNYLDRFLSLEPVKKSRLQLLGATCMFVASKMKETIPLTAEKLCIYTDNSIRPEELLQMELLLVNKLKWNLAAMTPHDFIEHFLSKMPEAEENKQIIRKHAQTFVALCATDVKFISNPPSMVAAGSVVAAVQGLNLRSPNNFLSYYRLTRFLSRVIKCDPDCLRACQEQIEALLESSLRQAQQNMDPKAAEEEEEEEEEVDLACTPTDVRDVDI

STK4 (human) = STK4 (human) (UniProt Q13043)
MAP2K6 (human) = MAP2K6 (human) (UniProt P52564)
GSK3A (human) = GSK3A (human) (UniProt P49840)
MAP3K14 (human) = MAP3K14 (human) (UniProt Q99558)
EPHA7 (human) = EPHA7 (human) (UniProt Q15375)
PRKACG (human) = PRKACG (human) (UniProt P22612)
MAP3K2 (human) = MAP3K2 (human) (UniProt Q9Y2U5)
EPHA8 (human) = EPHA8 (human) (UniProt P29322)
EPHA8 (human), sequence (P29322 whole entry, looked up): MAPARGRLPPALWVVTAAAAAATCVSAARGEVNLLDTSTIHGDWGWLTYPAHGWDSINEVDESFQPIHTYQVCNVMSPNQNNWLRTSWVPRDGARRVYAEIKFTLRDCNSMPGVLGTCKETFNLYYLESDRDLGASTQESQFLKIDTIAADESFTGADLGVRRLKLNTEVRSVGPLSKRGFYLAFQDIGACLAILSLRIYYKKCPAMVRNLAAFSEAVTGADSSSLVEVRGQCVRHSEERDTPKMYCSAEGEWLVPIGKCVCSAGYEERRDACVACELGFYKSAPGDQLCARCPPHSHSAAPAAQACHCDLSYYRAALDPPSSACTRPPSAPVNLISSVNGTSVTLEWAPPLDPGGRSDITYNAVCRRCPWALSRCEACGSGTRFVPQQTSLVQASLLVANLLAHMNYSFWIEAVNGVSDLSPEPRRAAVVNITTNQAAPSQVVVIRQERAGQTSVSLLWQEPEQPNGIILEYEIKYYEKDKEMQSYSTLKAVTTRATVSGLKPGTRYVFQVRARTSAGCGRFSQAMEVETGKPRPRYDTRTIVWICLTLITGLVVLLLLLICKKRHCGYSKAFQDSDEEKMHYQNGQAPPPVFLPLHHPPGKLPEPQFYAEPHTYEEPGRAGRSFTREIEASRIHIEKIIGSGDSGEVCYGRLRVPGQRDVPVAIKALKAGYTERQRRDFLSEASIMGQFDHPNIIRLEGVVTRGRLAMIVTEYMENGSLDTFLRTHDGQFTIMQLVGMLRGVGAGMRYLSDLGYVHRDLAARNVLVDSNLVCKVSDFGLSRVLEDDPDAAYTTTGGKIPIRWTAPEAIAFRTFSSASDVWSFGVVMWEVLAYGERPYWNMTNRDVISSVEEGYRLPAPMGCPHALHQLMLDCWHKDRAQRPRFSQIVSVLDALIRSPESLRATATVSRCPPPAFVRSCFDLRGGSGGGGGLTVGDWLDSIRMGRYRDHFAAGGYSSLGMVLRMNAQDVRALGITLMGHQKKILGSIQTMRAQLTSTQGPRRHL

CHEK1 (human) = CHEK1 (human) (UniProt O14757)
MAPKAPK2 (human) = MAPKAPK2 (human) (UniProt P49137)
MYLK2 (human) = MYLK2 (human) (UniProt Q9H1R3)
DDR2 (human) = DDR2 (human) (UniProt Q16832)
ULK3 (human) = ULK3 (human) (UniProt Q6PHR2)
GRK5 (human) = GRK5 (human) (UniProt P34947)
LRRK2 (human) = LRRK2 (human) (UniProt Q5S007)
LRRK2 (human), sequence (Q5S007 whole entry, looked up): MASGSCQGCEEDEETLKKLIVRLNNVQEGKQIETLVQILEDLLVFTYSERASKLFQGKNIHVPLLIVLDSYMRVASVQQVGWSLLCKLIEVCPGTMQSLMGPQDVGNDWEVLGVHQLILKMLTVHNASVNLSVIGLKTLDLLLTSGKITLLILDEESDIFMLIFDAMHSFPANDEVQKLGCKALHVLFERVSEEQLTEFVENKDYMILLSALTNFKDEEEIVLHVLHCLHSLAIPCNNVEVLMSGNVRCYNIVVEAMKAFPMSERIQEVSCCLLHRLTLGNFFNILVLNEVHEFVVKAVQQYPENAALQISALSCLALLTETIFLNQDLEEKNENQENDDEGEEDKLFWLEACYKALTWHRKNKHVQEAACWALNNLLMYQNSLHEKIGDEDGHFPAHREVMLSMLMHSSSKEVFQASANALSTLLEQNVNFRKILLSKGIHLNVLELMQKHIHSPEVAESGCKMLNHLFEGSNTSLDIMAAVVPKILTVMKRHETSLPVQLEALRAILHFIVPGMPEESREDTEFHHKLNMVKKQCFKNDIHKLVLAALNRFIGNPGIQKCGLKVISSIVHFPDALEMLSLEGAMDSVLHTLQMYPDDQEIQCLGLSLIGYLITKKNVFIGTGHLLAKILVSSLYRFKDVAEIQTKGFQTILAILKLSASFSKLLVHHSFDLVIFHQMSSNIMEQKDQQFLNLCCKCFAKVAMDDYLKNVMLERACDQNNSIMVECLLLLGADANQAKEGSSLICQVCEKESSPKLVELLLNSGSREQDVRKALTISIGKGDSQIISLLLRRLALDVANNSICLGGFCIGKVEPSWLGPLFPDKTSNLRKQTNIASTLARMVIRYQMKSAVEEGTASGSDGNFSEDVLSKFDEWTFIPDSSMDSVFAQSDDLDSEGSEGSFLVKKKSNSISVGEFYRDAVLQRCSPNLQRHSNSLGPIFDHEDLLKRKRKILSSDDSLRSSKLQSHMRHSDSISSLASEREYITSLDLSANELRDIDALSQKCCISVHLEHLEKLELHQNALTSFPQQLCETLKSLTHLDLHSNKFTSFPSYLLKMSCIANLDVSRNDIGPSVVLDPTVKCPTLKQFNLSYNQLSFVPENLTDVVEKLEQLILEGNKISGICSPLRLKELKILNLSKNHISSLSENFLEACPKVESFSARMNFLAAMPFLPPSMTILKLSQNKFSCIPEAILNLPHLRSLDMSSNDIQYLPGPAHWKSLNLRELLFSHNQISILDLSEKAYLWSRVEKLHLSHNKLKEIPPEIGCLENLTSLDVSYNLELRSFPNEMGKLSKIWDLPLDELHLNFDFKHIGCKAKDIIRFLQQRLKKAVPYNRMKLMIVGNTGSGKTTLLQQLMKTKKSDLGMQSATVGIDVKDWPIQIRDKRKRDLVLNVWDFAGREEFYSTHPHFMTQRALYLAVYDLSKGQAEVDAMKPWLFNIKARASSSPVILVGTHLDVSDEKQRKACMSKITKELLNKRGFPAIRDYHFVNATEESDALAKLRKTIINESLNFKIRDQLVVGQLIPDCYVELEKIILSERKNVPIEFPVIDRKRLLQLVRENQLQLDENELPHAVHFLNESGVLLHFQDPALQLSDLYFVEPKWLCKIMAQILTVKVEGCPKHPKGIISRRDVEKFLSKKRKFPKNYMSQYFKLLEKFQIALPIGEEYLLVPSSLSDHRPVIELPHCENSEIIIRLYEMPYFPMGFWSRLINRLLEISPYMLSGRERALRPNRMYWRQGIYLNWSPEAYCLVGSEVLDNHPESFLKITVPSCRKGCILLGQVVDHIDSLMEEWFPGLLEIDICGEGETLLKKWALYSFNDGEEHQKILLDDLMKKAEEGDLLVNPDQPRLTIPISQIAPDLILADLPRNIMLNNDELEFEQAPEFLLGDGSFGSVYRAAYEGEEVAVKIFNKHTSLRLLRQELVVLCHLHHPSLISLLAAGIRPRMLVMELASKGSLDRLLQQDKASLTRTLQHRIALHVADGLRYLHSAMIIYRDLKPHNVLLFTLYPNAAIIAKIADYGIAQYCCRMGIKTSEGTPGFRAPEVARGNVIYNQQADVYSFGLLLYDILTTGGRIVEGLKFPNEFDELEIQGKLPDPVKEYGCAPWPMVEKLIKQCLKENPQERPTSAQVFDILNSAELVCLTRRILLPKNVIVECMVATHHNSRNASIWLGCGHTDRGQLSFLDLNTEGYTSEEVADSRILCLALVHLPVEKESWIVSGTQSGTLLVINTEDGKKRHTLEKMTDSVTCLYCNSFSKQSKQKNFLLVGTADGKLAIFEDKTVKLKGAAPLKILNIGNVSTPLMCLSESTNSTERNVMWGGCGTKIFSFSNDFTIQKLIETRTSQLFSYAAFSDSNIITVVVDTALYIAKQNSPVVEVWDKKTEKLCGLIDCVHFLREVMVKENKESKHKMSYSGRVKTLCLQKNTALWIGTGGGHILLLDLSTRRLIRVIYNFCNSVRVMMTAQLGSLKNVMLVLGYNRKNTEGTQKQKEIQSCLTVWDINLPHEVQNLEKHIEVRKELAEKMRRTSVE

MAP3K10 (human) = MAP3K10 (human) (UniProt Q02779)
MAPKAPK5 (human) = MAPKAPK5 (human) (UniProt Q8IW41)
MAPK13 (human) = MAPK13 (human) (UniProt O15264)
PTK2 (human) = PTK2 (human) (UniProt Q05397)
RET (human) = RET (human) (UniProt P07949)
CAMK2G (human) = CAMK2G (human) (UniProt Q13555)
STK3 (human) = STK3 (human) (UniProt Q13188)
ROCK2 (human) = ROCK2 (human) (UniProt O75116)
SGK3 (human) = SGK3 (human) (UniProt Q96BR1)
STK38 (human) = STK38 (human) (UniProt Q15208)
STK38 (human), sequence (Q15208 whole entry, looked up): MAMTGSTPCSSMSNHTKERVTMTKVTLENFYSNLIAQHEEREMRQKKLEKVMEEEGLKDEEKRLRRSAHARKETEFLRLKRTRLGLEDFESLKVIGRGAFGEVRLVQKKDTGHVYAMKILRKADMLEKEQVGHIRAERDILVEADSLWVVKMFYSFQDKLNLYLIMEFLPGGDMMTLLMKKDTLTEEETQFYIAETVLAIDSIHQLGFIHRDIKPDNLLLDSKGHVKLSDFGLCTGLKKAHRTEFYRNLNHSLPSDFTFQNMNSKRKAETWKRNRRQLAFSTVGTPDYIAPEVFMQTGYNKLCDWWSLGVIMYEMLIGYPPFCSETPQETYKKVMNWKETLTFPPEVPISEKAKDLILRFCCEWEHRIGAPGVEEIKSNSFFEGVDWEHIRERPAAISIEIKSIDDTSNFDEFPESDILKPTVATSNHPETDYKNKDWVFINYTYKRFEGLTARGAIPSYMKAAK

CAMK2B (human) = CAMK2B (human) (UniProt Q13554)
NEK11 (human) = NEK11 (human) (UniProt Q8NG66)
NEK9 (human) = NEK9 (human) (UniProt Q8TD19)
CDK4 CCND3 (human) = CDK4 CCND3 (human) (UniProt P11802+P30281)
CDK4 CCND3 (human), sequence (P11802 whole entry, looked up): as the sequence (P11802 whole entry, looked up) above
CDK4 CCND3 (human), sequence (P30281 whole entry, looked up): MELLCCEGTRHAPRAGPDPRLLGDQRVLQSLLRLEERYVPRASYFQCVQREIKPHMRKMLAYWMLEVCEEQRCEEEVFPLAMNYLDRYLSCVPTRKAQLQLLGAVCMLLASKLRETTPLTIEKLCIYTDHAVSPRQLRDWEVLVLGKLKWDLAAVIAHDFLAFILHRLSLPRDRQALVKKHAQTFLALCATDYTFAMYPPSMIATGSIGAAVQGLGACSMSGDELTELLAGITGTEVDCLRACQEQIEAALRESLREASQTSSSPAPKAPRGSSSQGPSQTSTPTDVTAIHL

TLK2 (human) = TLK2 (human) (UniProt Q86UE8)
MST1R (human) = MST1R (human) (UniProt Q04912)
RPS6KA4 KD1 KD2 (human) = RPS6KA4 KD1 KD2 (human) (UniProt O75676)
ALK (human) = ALK (human) (UniProt Q9UM73)

Work on `CC[C@H](C)n1cc(C)c2c(C(=O)NCc3c(C)cc(C)[nH]c3=O)cc(-c3ccc(N4CCNCC4)nc3)cc21` yielded a residual activity (MERTK (human)) of 98.5%, a residual activity (NTRK2 (human)) of 99% and a residual activity (TYRO3 (human)) of 94.5%. For the same compound, the residual activity (PKN1 (human)) was 89%, the residual activity (MAPK3 (human)) was 99% and the residual activity (PTK2B (human)) was 110%. For the same compound, the residual activity (EPHB1 (human)) was 90.5%, the residual activity (MARK2 (human)) was 92.5% and the residual activity (CSK (human)) was 89.5%. For the same compound, the residual activity (BRSK2 (human)) was 103%, the residual activity (CDK4 CCND1 (human)) was 94.5% and the residual activity (STK4 (human)) was 97%. It also gave a residual activity (MAP2K6 (human)) of 94.5%, a residual activity (GSK3A (human)) of 102% and a residual activity (MAP3K14 (human)) of 99%. For the same compound, the residual activity (EPHA7 (human)) was 91.5%, the residual activity (PRKACG (human)) was 100% and the residual activity (MAP3K2 (human)) was 100%. For the same compound, the residual activity (EPHA8 (human)) was 89%, the residual activity (CHEK1 (human)) was 79% and the residual activity (MAPKAPK2 (human)) was 99%. It also gave a residual activity (MYLK2 (human)) of 96.5%, a residual activity (DDR2 (human)) of 102% and a residual activity (ULK3 (human)) of 104%. It also gave a residual activity (GRK5 (human)) of 101%, a residual activity (LRRK2 (human)) of 99% and a residual activity (MAP3K10 (human)) of 103%. The residual activity (MAPKAPK5 (human)) was 86%, the residual activity (MAPK13 (human)) was 95% and the residual activity (PTK2 (human)) was 91.5%. It also gave a residual activity (RET (human)) of 98.5%, a residual activity (CAMK2G (human)) of 99.5% and a residual activity (STK3 (human)) of 90%. For the same compound, the residual activity (ROCK2 (human)) was 98.5%, the residual activity (SGK3 (human)) was 105% and the residual activity (STK38 (human)) was 97%. The residual activity (CAMK2B (human)) was 95.5%, the residual activity (NEK11 (human)) was 107% and the residual activity (NEK9 (human)) was 102%. The residual activity (CDK4 CCND3 (human)) was 104%, the residual activity (TLK2 (human)) was 101% and the residual activity (MST1R (human)) was 97%. The residual activity (RPS6KA4 KD1 KD2 (human)) was 90.5% and the residual activity (ALK (human)) was 91.5%.
